According to patent US6632924B2, “Method of measuring plasma membrane targeting of GLUT4” (Whitehead Institute for Biomedical Research, priority 1999, dated 2003):

Columns and labels:
[1] = system: GLUT4 reporter (GLUT4myc7-GFP) in 3T3-L1 cells; experiment: Flow cytometry assay of GLUT4 reporter translocation to the plasma membrane in 3T3-L1 cells; type: cell-based, murine; conditions: for fold increase in the proportion of total GLUT4 present at the cell surface: insulin 80 nM
Protocol: A GLUT4 translocation assay was carried out as follows: 3T3 L1 preadipocytes were infected with a retrovirus encoding a GLUT4 construct fused to green fluorescent protein (GFP) at its carboxy terminus, and containing seven myc epitope tags in the first exofacial loop. A population of cells expressing a narrow window of green fluorescence was isolated by fluorescence activated cell sorting (FACS). These cells were propagated and differentiated on 10 cm plates, and were reseeded on 6-well dishes the day prior to performing the GLUT4 translocation assay. Cells were serum starved for 3 hours, then stimulated or not with 160 nM insulin for 10 minutes. They were then placed on ice and washed with cold phosphate buffered saline with calcium and magnesium (PBS++). All subsequent steps were done at 4° C. Cells were incubated with anti-myc antibody (9E10), washed briefly with PBS++, and incubated with phycoerythrin-conjugated F(ab)2 antimouse IgG. Cells were washed with PBS++, resuspended using EDTA, and analysed by two color flow cytometry.
One protocol for carrying out the method of assessing translocation of modified GLUT4 is as follows: 3T3L1 cells are maintained at a subconfluent density, infected with retrovirus expression vectors which include DNA encoding modified GLUT4 and induced to differentiate into adipocytes. After being cultured (e.g., for 8-12 days) under appropriate conditions, the cells are reseeded onto plates (e.g., 6-well plates) and serum starved (e.g., for 3 or more hours). Some cells are stimulated by insulin (e.g., 160 nM, 10 minutes), placed on ice and washed at 4° C. with PBS++ (phosphate buffered saline containing calcium and magnesium). Anti-myc antibody (9E10, available from the American Type Culture Collection) is added to the cells ([…], 1 ½ hours, 4° C.). The cells are again washed with PBS++ at 4° C. and an […] labeled with a red fluorophore (R-phycoerythrin (R-PE) conjugated antimouse IgG, 50 μg/ml, 45 minutes, 4° C.) is added. Another washing with PBS++(4° C.) is carried out, the cells are suspended with EDTA and FACS (fluorescences activated cell scanning/sorting) is carried out.
Confluent cells were reseeded on the indicated day of differentiation to six well plates (Coming, Costar #3506) one day before use in experiments, and were starved in DMEM without fetal bovine serum for at least 3 hours before insulin stimulation. Insulin was used at 80 nM or 160 nM; no difference was noted between these concentrations in either 3T3-L1 or CHO cells. After treatment in the presence or absence of insulin for the times indicated in each figure, cells were quickly transferred to 4° C. and washed with cold phosphate buffered saline containing 0.9 mM Ca^++ and 0.5 mM Mg^++ (PBS++). All subsequent steps were carried out at 4° C., and staining of externalized myc epitope was done on adherent cells. Cells were incubated with a 1:200 dilution of anti-myc (9E10) ascites in PBS++, 2% bovine serum albumin, 4% donkey serum for 1.5 hours. Cells were then washed twice in PBS++, for 5 min. each time. They were then incubated 45 min. in 12.5 µg/ml R-phycoerythrin conjugated donkey F(ab′)2 anti-mouse IgG secondary antibody, diluted in PBS++, 2% BSA, 4% donkey serum. Cells were washed three times with PBS++, for 10 min. each time, and were resuspended by gentle scraping in PBS++, 2% BSA for flow cytometry. […]

GLUT4 in adipocytes = conditions: ≦10% in the absence of insulin; cited from earlier work
[2] = system: GLUT4 reporter in CHO cells; experiment: Flow cytometry assay of GLUT4 reporter translocation to the plasma membrane in CHO cells; type: cell-based, Chinese hamster
Protocol: CHO-K1 cells stably expressing the murine ecotropic retroviral receptor were kindly provided by David Hirsch, Roger Lawrence, and Monty Kreiger (Massachusetts Institute of Technology, Cambridge Mass.), and were maintained in Han's F-12 medium with 10% fetal bovine serum, 2 mM glutamine, 100 U/ml penicillin, and 0.1 mg/ml streptomycin (Baker, B. W., et al., (1992)). To use identical experimental conditions in CHO and 3T3-L1 cells, CHO cells were placed in the same medium used for 3T3-L1 adipocytes two days before assays of GLUT4 trafficking. Phoenix ecotropic retroviral packaging cells were a gift from Garry Nolan (Stanford University Medical Center) and VE23 ecotropic retroviral packaging cells were a gift from Merav Socolovsky (Whitehead Institute, Cambridge Mass.) (Kinsella, and Nolan, Hum Gene Ther. 7:1405-1413 (1996); Socolovsky, M., et al. J Biol Chem. 272:14009-14012 (1997)). Both retroviral packaging cell lines were cultured in DMEM, 10% fetal bovine serum, glutamine, penicillin and streptomycin as above.
Confluent cells were reseeded on the indicated day of differentiation to six well plates (Coming, Costar #3506) one day before use in experiments, and were starved in DMEM without fetal bovine serum for at least 3 hours before insulin stimulation. Insulin was used at 80 nM or 160 nM; no difference was noted between these concentrations in either 3T3-L1 or CHO cells. After treatment in the presence or absence of insulin for the times indicated in each figure, cells were quickly transferred to 4° C. and washed with cold phosphate buffered saline containing 0.9 mM Ca^++ and 0.5 mM Mg^++ (PBS++). All subsequent steps were carried out at 4° C., and staining of externalized myc epitope was done on adherent cells. Cells were incubated with a 1:200 dilution of anti-myc (9E10) ascites in PBS++, 2% bovine serum albumin, 4% donkey serum for 1.5 hours. Cells were then washed twice in PBS++, for 5 min. each time. They were then incubated 45 min. in 12.5 µg/ml R-phycoerythrin conjugated donkey F(ab′)2 anti-mouse IgG secondary antibody, diluted in PBS++, 2% BSA, 4% donkey serum. Cells were washed three times with PBS++, for 10 min. each time, and were resuspended by gentle scraping in PBS++, 2% BSA for flow cytometry. For experiments involving insulin removal, cells were chilled as above after insulin stimulation, then washed twice with 5 mM sodium acetate, 150 mM NaCl, pH 4.0 (Yang, J., et al., J Biol Chem. 267:1039310399 (1992); Kao, A. W., et al., J Biol Chem. 273:25450-25457 (1998)). Cells were rewarmed in 37° C. DMEM for the times indicated, restimulated or not with insulin, and then returned to 4° C. and chilled with cold PBS++ before staining as above.
Flow cytometry was done on FACScan or FACSCalibur cytometers (Becton-Dickinson). Appropriate compensation between the FL1 and FL2 channels was set using uninfected (GFP-negative) cells or cells stained with PE only (e.g. using a PE-conjugated anti-transferrin receptor antibody; Pharmingen). […] For each sample, data from ≧10,000 cells were collected. Median fluorescence intensities were used for quantitation, since this measure of central tendency is least sensitive to outliers. For each sample, the PE and GFP fluorescence specifically attributable to the presence of the GLUT4 reporter were determined by subtracting background fluorescences, measured using control unstained cells and cells not expressing the reporter, respectively.
Whether this recycling mechanism is present in an unrelated cell type was also assessed. This was done by infecting Chinese Hamster Ovary (CHO) cells expressing the murine ecotropic retroviral receptor with a retrovirus carrying the GLUT4 reporter, and using FACS to isolate cells falling within a narrow range of GFP fluorescence intensities. CHO cells are smaller and have less autofluorescence than 3T3-L1 adipocytes or fibroblasts. […]

[3] = system: GLUT4myc-GFP in 3T3-L1 adipocytes; experiment: Time-lapse video fluorescence microscopy of GLUT4myc-GFP in 3T3-L1 adipocytes; type: cell-based, murine; conditions: 3T3-L1 adipocyte; 2.5, 5 and 10 minutes after insulin
Protocol: Time lapse video fluorescence microscopy was performed using a Nikon Diaphot 300 inverted microscope as described (Smith, G. A., et al., J Cell Biol. 135:647-660 (1996)). 3T3-L1 adipocytes expressing GLUT4myc-GFP were reseeded to 25 mm round coverslips and were incubated in serum-free DMEM for at least three hours before microscopy. Cells were maintained at 37° C. during microscopy using an aluminum chamber mounted on the stage and connected to a circulating waterbath. Images were acquired every 15 sec using a Hammamatsu CCD camera and Metamorph software (Universal Imaging Corp., West Chester, Pa.).
The GLUT4 reporter in a murine retroviral vector was used to infect 3T3-L1 fibroblasts. The infected cells underwent normal adipose differentiation (see below), and we took several approaches to confirm that the GLUT4 reporter traffics appropriately. […] In the absence of insulin, GFP fluorescence is present in the perinuclear pattern that is characteristic of GLUT4, as well as in punctate structures near the plasma membrane and throughout the cytoplasm. Lipid droplets are present in the cytoplasm, and are seen as discrete areas of reduced fluorescence intensity.

[4] = CHO cells in DMEM, 80 nM insulin

Substance: insulin
- fold increase in the proportion of total GLUT4 present at the cell surface ([1]; 3T3-L1 adipocytes, 10 min): 5.0 fold
- difference in response between 80 nM and 160 nM insulin ([1]; 3T3-L1 cells): no difference
- fall of the fraction of GLUT4 on the plasma membrane after the peak ([1]; all stages of 3T3-L1 differentiation, 80 nM insulin): 30% to 40%
- fold increase in the proportion of total GLUT4 present at the cell surface ([1]; confluent 3T3-L1 fibroblasts, 5 min): 4.4 fold
- average maximal increase in the proportion of GLUT4 at the cell surface ([1]; mature (Day 8 and 10) 3T3-L1 adipocytes, 80 nM insulin): 5.4 fold
- proportion of GLUT4 at the cell surface in the presence of insulin (GLUT4 in adipocytes): approximately 50%
- difference in response between 80 nM and 160 nM insulin ([2]; CHO cells): no difference
- kinetics of GLUT4 redistribution after insulin addition ([2]; CHO cells cultured in DME medium (25 mM glucose), 80 nM insulin): biphasic kinetics
- kinetics of GLUT4 externalization after insulin addition ([2]; CHO cells cultured in F12 medium (10 mM glucose), 80 nM insulin): essentially monophasic response
- time of peak GLUT4 externalization after insulin addition [2, 4]: four to five
- time to steady state of cell-surface GLUT4 after insulin addition [2, 4]: twenty
- peak fold increase in the proportion of GLUT4 at the cell surface versus unstimulated cells ([2]; CHO cells in DMEM, 80 nM insulin, 5 minutes after addition): 5.5 fold
- part of the peak increase in cell-surface GLUT4 eliminated in the subsequent decrease ([2]; CHO cells, several experiments): 50% to 60%
- fold increase in the proportion of total GLUT4 present at the cell surface ([2]; confluent CHO cells, insulin 80 nM, 8 min): 3.5 fold
- distribution of GFP fluorescence after insulin addition [3]: redistribution of fluorescence to the plasma membrane
